Data taken from the supplement of paper PMC8882468.

Assays:
Assay in all cases: CTG-3D luminescence at 96 h relative to day-0 seeding control (ratio to day 0); higher = more growth / less cytotoxicity
HCI-001 = tested on: HCI-001 (organoid from a triple-negative breast cancer xenograft)
Description: (§1)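 PDX-derived breast cancer organoids (PDxO) in 384-well Matrigel plates, 8-point dose (0.000000625-100 uM), 96 h at 37 C; CellTiter-Glo 3D luminescence normalised to the day-0 seeding control (mean of 4 technical replicates over mean of 4 day-0 wells).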

HCI-012 = tested on: HCI-012 (organoid from a breast cancer xenograft)
Description: as §1

HCI-015 = tested on: HCI-015 (organoid from a triple-negative breast cancer xenograft)
Description: as §1

HCI-016 = tested on: HCI-016 (organoid from a triple-negative breast cancer xenograft)
Description: as §1

HCI-025 = tested on: HCI-025 (organoid from a breast cancer xenograft)
Description: as §1

O=c1[nH]cc(F)c(=O)[nH]1 [5-fluorouracil]
CTG-3D luminescence at 96 h
Settings | 12.5 pM | 0.00025 µM | 0.005 µM | 0.1 µM | 1 µM | 10 µM | 100 µM | 625 fM
HCI-001, days in culture: 240 | 1.75 | 1.08 | 1.16 | 0.972 | 1.31 | 0.84 | 0.903 | 1.74
HCI-001, days in culture: 260 | 2.43 | 1.07 | 2.1 | 1.43 | 1.62 | 1.42 | 1.14 | 1.09
HCI-001, days in culture: 269 | 1.52 | 1.48 | 1.32 | 1.97 | 1.62 | 2.03 | 1.46 | 1.77
HCI-001, days in culture: 327 | 1.6 | 1.41 | 2.11 | 1.91 | 1.54 | 1.38 | 1.51 | 1.69
HCI-001, days in culture: 346 | 1.42 | 1.55 | 1.28 | 1.28 | 1.41 | 1.26 | 1.3 | 1.12
HCI-001, days in culture: 364 | 1.68 | 1.19 | 1.35 | 1.35 | 1.13 | 1.21 | 0.902 | 1.55
HCI-012, days in culture: 143 | 2.31 | 2.12 | 1.8 | 2.12 | 2.07 | 1.71 | 0.413 | 1.96
HCI-012, days in culture: 162 | 2.26 | 2.44 | 1.98 | 2.86 | 1.98 | 2.16 | 0.425 | 2.74
HCI-012, days in culture: 201 | 2.32 | 2.31 | 1.56 | 1.69 | 2.12 | 1.21 | 1.08 | 1.85
HCI-015, days in culture: 172 | 2.81 | 2 | 2.42 | 1.81 | 1.61 | 1.12 | 1.03 | 2.72
HCI-015, days in culture: 191 | 2.43 | 1.43 | 1.71 | 0.853 | 1.35 | 0.995 | 0.865 | 1.37
HCI-015, days in culture: 218 | 1.85 | 1.55 | 1.83 | 1.77 | 1.51 | 1.54 | 0.999 | 1.81
HCI-016, days in culture: 153 | 3.47 | 1.65 | 2.39 | 2.02 | 2.17 | 1.8 | 1.21 | 3.05
HCI-016, days in culture: 172 | 2.33 | 1.93 | 1.51 | 1.52 | 1.52 | 1.1 | 1.12 | 1.92
HCI-016, days in culture: 190 | 1.67 | 1.39 | 1.63 | 1.35 | 1.16 | 1.1 | 1.11 | 1.3
HCI-016, days in culture: 199 | 1.49 | 1.49 | 1.44 | 1.47 | 1.68 | 1.21 | 1.18 | 1.73
HCI-025, days in culture: 172 | 2.59 | 1.93 | 3.91 | 1.56 | 1.55 | 0.982 | 0.597 | 2.53
HCI-025, days in culture: 209 | 2.04 | 2.56 | 1.99 | 1.52 | 1.7 | 1.25 | 0.569 | 1.37
HCI-025, days in culture: 218 | 1.7 | 1.9 | 1.92 | 1.65 | 1.37 | 1.61 | 0.855 | 1.86
